Assay results: patent US20210221812A1, “MATRINE a-KETOAMINE COMPOUNDS, PREPARATION METHOD THEREFOR AND USE THEREOF” (SHANGHAI XINGYE PHARMACEUTICAL TECHNOLOGY CO., LTD, priority 2018, published 2021)
Where two headings read alike, the source gives them in different places. Values belong to the molecule of their own block, whether it stands above or below them.

Key:
[1] = tested on: MGC-803 cells; test: MTT tumor cell growth inhibition, MGC-803; format: cell-based; conditions: 48 h, read-out: Tumors growth-inhibitory activity (IC50) MGC-803
Procedure: (§1) Using MTT method to determine the growth inhibition activity of the matrine compounds on Lovo, MGC-803, Mia-paca2, HpeG-2, A549, k562, and Panc-1 cells in vitro. Logarithmic growth phase of Lovo, MGC-803, Mia-paca2, HpeG-2, A549, k562, Panc-1 cells were inoculated into 96-well plates (purchased from Institute of Biochemical Cells, Chinese Academy of Sciences, and cultured according to conventional tumor cell culture methods) at a density of 4×10^4/mL and 180 μL/well; after the cells adhered to the wall, 20 μL of drug solution was added to each well and matined the final drug concentrations were 0.1 μM, 1 μM, 10 μM, 50 μM, 100 μM respectively. After 48 h, 5 mg/mL MTT solution was added (20 μL/well) and maintained in a CO2 incubator for 3-4 h. After that, discarding the supernatant carefully, and DMSO was added (200 μL/well) when the residual liquid was air-dried, and shook for 0.5-1 h until the residual crystals was dissolved. The absorbance OD was measured at 492 nm by a microplate reader. GraphPad Prism 5 software was used to calculate the IC50 value.

[2] = tested on: Lovo cells; test: MTT tumor cell growth inhibition, Lovo; format: cell-based; conditions: 48 h, read-out: Tumors growth-inhibitory activity (IC50) Lovo
Procedure: as §1

[3] = tested on: HpeG-2 cells; test: MTT tumor cell growth inhibition, HpeG-2; format: cell-based; conditions: 48 h, read-out: Tumors growth-inhibitory activity (IC50) HpeG-2
Procedure: as §1

[4] = tested on: A549 cells; test: MTT tumor cell growth inhibition, A549; format: cell-based; conditions: 48 h, read-out: Tumors growth-inhibitory activity (IC50) A549
Procedure: as §1

[5] = tested on: Panc-1 cells; test: MTT tumor cell growth inhibition, Panc-1; format: cell-based; conditions: 48 h, read-out: Tumors growth-inhibitory activity (IC50) Panc-1
Procedure: as §1

[6] = tested on: k562 cells; test: MTT tumor cell growth inhibition, k562; format: cell-based; conditions: 48 h, read-out: Tumors growth-inhibitory activity (IC50) k562
Procedure: as §1

[7] = tested on: Mia-paca2 cells; test: MTT tumor cell growth inhibition, Mia-paca2; format: cell-based; conditions: read-out: Tumors growth-inhibitory activity (IC50) Mia-paca2
Procedure: as §1

[8] = tested on: TNF-α; test: TNF-α activity inhibiting assay (LPS-stimulated peripheral blood, ELISA); format: cell-based, human; conditions: compound 20 μM, LPS 10 ng/mL, 6 hours, diluted peripheral blood of healthy volunteers; for inhibition at 20 µM: Homo sapiens, read-out: TNF-α inhibition rate (%)
Procedure: Methods: Peripheral blood from healthy volunteers was collected with EDTA anticoagulant tubes. After being diluted 5-fold with 1640 medium (Gibco, USA), the blood was added to 96-well cell culture plates (Costar, USA) and then treated with 10 μL solution of the compound of general formula (I) of the present invention in DMSO (Sigma, USA), the final concentration of the compound was 20 μM with the final concentration of DMSO was 0.2%. After incubation for 60 minutes in an incubator at 37° C. under 5% CO2, 10 μL LPS (Sigma, USA) was added to the reaction system, and the final concentration was 10 ng/mL. After further culturing for 6 hours in the incubator at 37° C. under 5% CO2, the supernatant was collected. The content of TNF-α was determined by ELISA (BD Biosciences, USA). Absorbance was detected at OD450 nm with a microplate reader, with OD 650 nm as reference. The control, a solution containing 0.2% DMSO medium, was as 0% inhibition. Raw data and standard curves were recorded. The four-parameter drug inhibition curve was plotted by XL-fit software and the inhibition rate of each compound was calculated.

Structure (SMILES): NC1CC[C@@H]2[C@H]3CCCN4CCC[C@@H](CN2C1=O)[C@@H]34 (some centres unmarked) [Compound M-3, 14-amino-matrine]
IC50 ([1]; Homo sapiens): > 100 µM
IC50 ([2]; Homo sapiens): 50 to 100 µM
IC50 [3]: 50 to 100 µM
IC50 ([4]; Homo sapiens): 50 to 100 µM
IC50 ([5]; Homo sapiens): > 100 µM
IC50 ([6]; Homo sapiens): 50 to 100 µM
IC50 ([7]; Homo sapiens, MIA PaCa-2, 48 h): > 100 µM

Structure (SMILES): O=C1c2cccc(F)c2C(=O)N1C1CC[C@@H]2[C@H]3CCCN4CCC[C@@H](CN2C1=O)[C@@H]34 (some centres unmarked) [GJD 03]
inhibition at 20 µM [8]: > 50%

Structure (SMILES): O=C1c2cccc(Cl)c2C(=O)N1C1CC[C@@H]2[C@H]3CCCN4CCC[C@@H](CN2C1=O)[C@@H]34 (some centres unmarked) [GJD 04]
inhibition at 20 µM [8]: > 50%

Structure (SMILES): O=C1c2cccc([N+](=O)[O-])c2C(=O)N1C1CC[C@@H]2[C@H]3CCCN4CCC[C@@H](CN2C1=O)[C@@H]34 (some centres unmarked) [GJD 05]
inhibition at 20 µM [8]: > 50%

IC50 ([1]; Homo sapiens): > 100 µM
IC50 ([2]; Homo sapiens): 50 to 100 µM
IC50 [3]: < 50 µM
IC50 ([4]; Homo sapiens): 50 to 100 µM
IC50 ([5]; Homo sapiens): 50 to 100 µM
IC50 ([6]; Homo sapiens): 50 to 100 µM
IC50 ([7]; Homo sapiens, MIA PaCa-2, 48 h): 50 to 100 µM
Structure (SMILES): N#Cc1cccc2c1C(=O)N(C1CC[C@@H]3[C@H]4CCCN5CCC[C@@H](CN3C1=O)[C@@H]45)C2=O (some centres unmarked) [GJD 06]
inhibition at 20 µM [8]: > 50%

Structure (SMILES): Cc1cccc2c1C(=O)N(C1CC[C@@H]3[C@H]4CCCN5CCC[C@@H](CN3C1=O)[C@@H]45)C2=O (some centres unmarked) [GJD 08]
inhibition at 20 µM [8]: > 50%

Structure (SMILES): COc1cccc2c1C(=O)N(C1CC[C@@H]3[C@H]4CCCN5CCC[C@@H](CN3C1=O)[C@@H]45)C2=O (some centres unmarked) [GJD 09]
inhibition at 20 µM [8]: > 50%

Structure (SMILES): O=C1c2cccc(O)c2C(=O)N1C1CC[C@@H]2[C@H]3CCCN4CCC[C@@H](CN2C1=O)[C@@H]34 (some centres unmarked) [GJD 10]
TNF-α inhibition rate (%) [8]: ≥50%

Structure (SMILES): C#Cc1cccc2c1C(=O)N(C1CC[C@@H]3[C@H]4CCCN5CCC[C@@H](CN3C1=O)[C@@H]45)C2=O (some centres unmarked) [GJD 11]
inhibition at 20 µM [8]: < 50%

Structure (SMILES): CC(C)Nc1cccc2c1C(=O)N(C1CC[C@@H]3[C@H]4CCCN5CCC[C@@H](CN3C1=O)[C@@H]45)C2=O (some centres unmarked) [GJD 12]
inhibition at 20 µM [8]: > 50%

Structure (SMILES): CC(=O)Nc1cccc2c1C(=O)N(C1CC[C@@H]3[C@H]4CCCN5CCC[C@@H](CN3C1=O)[C@@H]45)C2=O (some centres unmarked) [GJD 13]
inhibition at 20 µM [8]: > 50%

Structure (SMILES): CS(=O)(=O)Nc1cccc2c1C(=O)N(C1CC[C@@H]3[C@H]4CCCN5CCC[C@@H](CN3C1=O)[C@@H]45)C2=O (some centres unmarked) [GJD 14]
inhibition at 20 µM [8]: > 50%

IC50 ([1]; Homo sapiens): 50 to 100 µM
IC50 ([2]; Homo sapiens): 50 to 100 µM
IC50 [3]: < 50 µM
IC50 ([4]; Homo sapiens): > 100 µM
IC50 ([5]; Homo sapiens): > 100 µM
IC50 ([6]; Homo sapiens): 50 to 100 µM
IC50 ([7]; Homo sapiens, MIA PaCa-2, 48 h): 50 to 100 µM
Structure (SMILES): COc1ccc2c(c1)C(=O)N(C1CC[C@@H]3[C@H]4CCCN5CCC[C@@H](CN3C1=O)[C@@H]45)C2=O (some centres unmarked) [GJD 16]

Structure (SMILES): Nc1ccc2c(c1)C(=O)N(C1CC[C@@H]3[C@H]4CCCN5CCC[C@@H](CN3C1=O)[C@@H]45)C2=O (some centres unmarked) [GJD 18]
inhibition at 20 µM [8]: < 50%

Structure (SMILES): COc1cc2c(cc1OC)C(=O)N(C1CC[C@@H]3[C@H]4CCCN5CCC[C@@H](CN3C1=O)[C@@H]45)C2=O (some centres unmarked) [GJD 19]
inhibition at 20 µM [8]: < 50%

Structure (SMILES): O=C1c2ccccc2C(=O)N1C1=CC[C@@H]2[C@H]3CCCN4CCC[C@@H](CN2C1=O)[C@@H]34 [GJD 22]
inhibition at 20 µM [8]: > 50%

IC50 [1]: 50 to 100 µM
IC50 [2]: < 50 µM
IC50 [3]: < 50 µM
IC50 [4]: < 50 µM
IC50 [5]: 50 to 100 µM
IC50 [6]: < 50 µM
IC50 ([7]; 48 h): 50 to 100 µM
Structure (SMILES): Cc1cccc2c1C(=O)N(C1=CC[C@@H]3[C@H]4CCCN5CCC[C@@H](CN3C1=O)[C@@H]45)C2=O [GJD 24]

IC50 ([1]; Homo sapiens): > 100 µM
IC50 ([2]; Homo sapiens): 50 to 100 µM
IC50 [3]: 50 to 100 µM
IC50 ([4]; Homo sapiens): 50 to 100 µM
IC50 ([5]; Homo sapiens): > 100 µM
IC50 ([6]; Homo sapiens): 50 to 100 µM
IC50 ([7]; Homo sapiens, MIA PaCa-2, 48 h): > 100 µM
Structure (SMILES): O=C1[C@@H](N2C(=O)c3ccccc3C2=O)CC[C@@H]2[C@H]3CCCN4CCC[C@@H](CN12)[C@@H]34 [GJD 25]

Structure (SMILES): Nc1cccc2c1C(=O)N(C1CC[C@@H]3[C@H]4CCCN5CCC[C@H](CN3C1=O)[C@@H]45)C2=O (some centres unmarked) [GJD 27]
inhibition at 20 µM [8]: > 50%
